Experimental findings from a melting point compilation (Tetko et al.; mined from patent text by program, amines drawn as free bases though some values may be those of a salt) are described below.

By melting point is commonly meant the temperature, or range, at which the solid turns liquid.

Regarding `COC(=O)C(C)OC(=O)Cc1cc(Oc2ccc(C(F)(F)F)cc2Cl)ccc1[N+](=O)[O-]` (stereo not given), the melting point is 72.1 to 72.9 °C. As for `CCOC(=O)c1csc(/C=C/c2cccc(N)c2)n1`, the melting point is 112 to 113 °C. With `CCOC(=O)Cc1cc2ccc(Br)cc2[nH]1` the figure was 67 to 69 °C; with `O=C(O)C1Cc2c(cc(Cl)c3c(-c4ccccc4F)noc23)O1` (stereo not given), 191 to 193 °C. Under `CCC(=O)c1ccsc1N` stands 140 to 142 °C; under `CC(C)(C)c1ccc(C=C(CCCCCC2CCCCC2)COCc2ccccc2)cc1NC(=O)CC1c2ccccc2Oc2ccccc21`, 110 °C. With `CC(=O)N(c1nc2cc3nc(N(C(C)=O)N4CCCCC4C)sc3cc2s1)N1CCCCC1C` (stereo not given) the figure was 242 to 245 °C. Consider `CCCCCCCCCCCCCCN(C)c1ccc(N)cc1C(=O)O`, for which the melting point was 79 °C. With `COc1ccc(CCNS(=O)(=O)Cc2ccc3[nH]cc(CCN(C)C)c3c2)cc1` the figure was 67 to 70 °C; with `Cn1c(=O)cnn(-c2cc(N)c(Cl)cc2F)c1=O`, 150 to 152 °C; with `Cn1cc(C2=C(c3c4n(c5ccccc35)CC3CN(C(=O)OC(C)(C)C)CC3C4)C(=O)OC2=O)c2ccccc21` (stereo not given), 265 to 266 °C. With `Nc1ncnc2c1ncn2C1OC(CNC=O)C(O)C1O` (stereo not given) the figure was 212 to 213 °C; with `CCOc1cn(C)cc(-c2ccc(Cl)c(C(F)(F)F)c2)c1=O`, 158 to 159 °C; with `COc1ccc(Nc2cc(Cl)ccc2[N+](=O)[O-])cc1`, 98 °C. With `CCOC(=O)c1[nH]nnc1Nc1ccccc1` the figure was 129 to 130 °C; with `COc1ccc(S(=O)(=O)Nc2c(Cl)ncnc2Nc2ccccc2)cc1`, 174 to 175 °C; with `O=C(Nc1cccc(NC2=CC(=O)c3ccccc3C2=O)c1)c1ccccc1`, 185 °C.

Take `CN1CCN(c2ccc(C#N)c3ccccc23)CC1`: the melting point was 128 to 129 °C. With `O=C1SCC(O)=C1Cc1ccc2ccccc2c1Br` the figure was 205 to 206 °C; with `CC1COCc2nc3c(N)nc4ccc(OCc5ccccc5)cc4c3n21` (stereo not given), 100 to 120 °C; with `O=C1CCCCC1c1ncc[nH]1` (stereo not given), 104 to 105 °C.

For the compound `CCCCCS(=O)(=O)NC(=O)/C=C/c1ccc(OCCC(C)=O)cc1Oc1ncc(C(F)(F)F)cc1Cl`, the melting point was in the range of 180 to 181 °C. As to `COC(=O)C1=C(C)NC(C)=C(S(C)(=O)=O)C1c1ccccc1[N+](=O)[O-]` (stereo not given), the melting point was in the range of 211 to 212 °C. With `COC(=O)c1ccc(/C=C/c2cnc3ccccc3c2)cc1`, the melting point is 92 to 94 °C.

Consider `CCOc1cc2cc(C3=NNC(=O)CC3C)sc2cc1OCC` (stereo not given), for which the melting point fell in the range of 170 to 171 °C. With `O=Cc1cnccc1Cl` the figure was 53 to 54 °C; with `CN1CCCCc2cc([N+](=O)[O-])ccc21`, 52 to 54 °C. With `O=C(O)CSc1ccc(-n2cc(C3c4ccccc4C=Cc4ccccc43)c(=S)[nH]c2=O)nn1` the figure was 248 to 250 °C; with `c1ccc2c(CCc3ccncc3)c[nH]c2c1`, 154 to 158 °C; with `CCc1ccccc1NC=C1C(=O)N(c2ccccn2)N=C1C`, 183 °C. Under `Cc1cc(C(=O)O)c(S(N)(=O)=O)s1` stands 198 °C; under `O=C(Cc1ccc(OCc2ccccc2C(=O)O)cc1)NC1(C(=O)O)Cc2ccc(-c3ccc(Cl)cc3)cc2C1` (stereo not given), 209 to 211 °C. `CCCCCc1ccc(C(=O)CCC(=O)O)cc1` yielded a melting point of 98 to 100 °C.

On to `CCCCCc1ccc(CC(=O)c2ccc(OC)cc2)cc1`, for which the melting point turned out to be 62 °C.

With `CCn1c(COC(=O)OCc2nc(C(C)C)c(Sc3cc(Cl)cc(Cl)c3)n2CC)nc(C(C)C)c1Sc1cc(Cl)cc(Cl)c1`, the melting point fell in the range of 73 to 76 °C. Under `Cc1ccc2cccc(OCc3c(Cl)ccc(S(=O)(=O)N(CCCCN)C(C)(C)C)c3Cl)c2n1` stands 142 to 144 °C; under `Cc1nc2c3c(ccc2n1C)[C@@H](O)[C@H](O)[C@@H](c1ccccc1)O3`, 262 °C; under `CC(C#Cc1ccc(Oc2ccccc2)cc1)N(O)C(N)=O` (stereo not given), 141 to 142 °C. Compound `O=C(Cl)[C@@H]1CCCN1S(=O)(=O)c1ccc2ccccc2c1` had a melting point of 107 to 109 °C.

On to `Cc1ccc(-c2cnccn2)cc1`, for which the melting point was 54 to 55 °C. With `COc1ccc2oc(C(=O)NCc3ccccc3)c(OC(C)C)c2c1` the figure was 68 to 69 °C; with `O=C1C(=O)N(c2ccccc2)C(=O)N1c1ccccc1`, 203 °C; with `COc1cc2nc(CN(C)C)nc(Cl)c2cc1OC`, 78 to 80 °C. Under `OC1C2CCN(CC2)C1CN1CCCCC1` (stereo not given) stands 130 to 131 °C; under `CCNc1nc2ccc(CCc3ccccn3)cc2o1`, 57 to 59 °C. With `O=C(O)CCCOc1ccc(C(=O)c2ccc(F)cc2)cc1` the figure was 109 to 111 °C.

In turn, `C1=NC=C2CCNC=C12` gave a melting point of 182 to 190 °C. Under `COCOc1cc(Cl)ccc1-c1cc(-c2cccc(N(C(=O)OC(C)(C)C)C(=O)[C@@H](N)Cc3c[nH]cn3)c2)c(C#N)c(NC(=O)c2ccco2)n1` stands 149 to 150 °C; under `COc1ccc(C#N)cc1/C=C/C(=O)O`, 252 to 253 °C; under `CCOC(=O)c1c(N2CCN(C(=O)c3cccs3)CC2)c2cccnc2n(Cc2ccc(OC(C)=O)cc2)c1=O`, 123 °C. Regarding `Cc1cc(-c2nc3cccnn3c2-c2ccnc(NC(=O)NC(C)(C)C)c2)ccc1F`, the melting point was 234 to 235 °C. The compound `CCOC(=O)C(=Cc1cc(OC)c(OC)cc1OC)C(=O)OCC` registered a melting point of 86 to 87 °C. `CCOc1nn(-c2ccc(C(F)(F)F)cn2)cc1CCCOc1ccc(CCC(=O)O)cc1OCc1ccccc1` gave a melting point of 115 to 116 °C. With `C=CN1CC/C(=C\C)C1=O` the figure was 59 to 61 °C; with `CCCCOC(=O)Nc1ccc2cnn(Cc3ccc(C(=O)NS(=O)(=O)c4ccccc4)cc3OC)c2c1`, 153 to 154 °C. `O=C1NC(CCN2CCC(C(=O)c3ccc(F)cc3)CC2)Nc2ccccc21` (stereo not given) had a melting point of 153 °C.

For the compound `Cc1nc(NCCc2ccc(OCc3nn[nH]n3)cc2)c2cc(C)sc2n1`, the melting point worked out at 205 °C. Under `CCCCCCCCCCCCCCCCSCC(CNS(=O)(=O)CCCI)NC(=O)NC` (stereo not given) stands 70 to 71 °C.

For the compound `COc1ccc(CCNC(=O)[C@@H](N)C(C)C)cc1OC`, the melting point lay in the range of 52 to 54 °C. Under `COc1ccc(NC(=O)C2CCCCn3c2nc(-c2ccncn2)cc3=O)c(OC)n1` (racemic) stands 231 to 233 °C; under `CC(C)(C(=O)O)c1nc2ccc(NCCCN3CCC(OC(c4ccccc4)c4ccccc4)CC3)nn2c1Cl`, 133 to 135 °C; under `C[N+]1([O-])CC(CO)(c2ccccn2)C(=O)c2ccccc21` (stereo not given), 198 to 200 °C. Under `N#Cc1ccc2c(c1)CCCC2(O)c1ccns1` (stereo not given) stands 182 to 184 °C; under `CN1C(=O)C(Cc2ccncc2)(Cc2ccncc2)NC1=S`, 225 to 227 °C. Under `O=C1OC(Cc2ccccc2)CN1c1cccc(F)c1` (stereo not given) stands 96 to 97.5 °C; under `N#Cc1cnn(Cc2ccccc2)c1`, 61 to 63 °C.

The compound `CS(=O)(=O)C(S(C)(=O)=O)S(=O)(=O)Oc1ccccc1` gave a melting point of 159 to 160 °C. Under `CCN(O)C(=O)Cc1ccc2c(c1)C(=O)c1ccccc1CO2` stands 119 to 121 °C; under `O=C(Nc1n[nH]c(=S)s1)NC(Cc1ccccc1)C(=O)NCCCc1ccccc1` (stereo not given), 190 to 191 °C; under `O=C1OC(c2ccccc2)=NC1Cc1c[nH]c2ccccc12` (stereo not given), 141 to 143 °C.

Turning to `CCOC(=O)c1cc(C)c(Cl)nc1Nc1ccccc1`, the melting point lay within 116 to 118 °C. In turn, `CCOC(=O)C=Cc1cc(OC)c(OCc2ccccc2)c(OC)c1` gave a melting point of 68 to 69 °C. As for `O=c1cc(OCc2ccccc2)cc(CC(O)c2ccc(OCc3ccccc3)c(OCc3ccccc3)c2)o1` (stereo not given), the melting point was in the range of 109 to 110 °C. The compound `O=C(C=Cc1ccccc1)Oc1ccccc1` registered a melting point of 114 to 116 °C. Under `Cn1cc(C2=C(c3ccccc3OCC3COC(C)(C)O3)C(=O)NC2=O)c2ccccc21` (racemic) stands 221 °C. Under `CC(=O)Nc1cnc(-c2ccccc2)nc1NCC(=O)N(C)c1ccccc1` stands 200 to 201 °C. Under `COc1ccc(SC(C(=O)NO)C(C)C)cc1` (stereo not given) stands 119 °C; under `CC(C)Cc1c2c(nn1Cc1ccccc1)c(N)nc1ccccc12`, 194 to 196 °C. Compound `COc1ccc(NC(N)=S)nc1` yielded a melting point of 131 to 135 °C.

Compound `Nc1c(N(CC(=O)O)Cc2ccccc2)c(=O)c1=O` displayed a melting point of 177 to 179 °C. With `CC(C)c1cccc(C(C)C)c1NC(=O)NC(Cc1ccccc1)c1ccccc1` (stereo not given) the figure was 219 to 221 °C; with `COC(=O)c1cccn2c(I)cnc12`, 99 to 110 °C.

With `COc1cc(N)c(Cl)cc1C(=O)NCC1CCN(CCCCCNC(=O)Nc2ccccc2)CC1`, the melting point is 214 to 217 °C. Under `CCNCC1CCN(c2c(F)cc3c(=O)c(C(=O)O)cn(C4CC4)c3c2OC)C1` (stereo not given) stands 217 to 219 °C; under `C=CCn1c(=O)c2cnc(Nc3ccc(OCCN(CC)CC)cc3)nc2n(C(C)C)c1=O`, 90 to 96 °C; under `CCN(CC)C(=O)c1[nH]c2ccccc2c1CN(Cc1cc(C(F)(F)F)cc(C(F)(F)F)c1)c1nnn(C)n1`, 98 °C. With `OCc1ccc(-c2ccccc2)cc1Cl` the figure was 69 to 70 °C. Under `ICCCCCCOc1ccc(C2=C(c3ccccc3)CCCc3cc(OC4CCCCO4)ccc32)cc1` (stereo not given) stands 108 to 110 °C.

On to `CC(C)(C)COc1ccc([N+](=O)[O-])cc1Br`, for which the melting point lay within 86 to 88 °C. Under `COc1cc(OC)c(OC)c(OC)c1OC` stands 59 to 61 °C.
